Publication PMC7018972, “Novel and selective inactivators of Triosephosphate isomerase with anti-trematode activity” (Scientific Reports, 2020)
Where two headings read alike, the source gives them in different places. Each block holds one compound with its values, some of them ahead of it.

What was measured:
[1] = biological target: Fasciola hepatica TIM (FhTIM) (Fasciola hepatica, UniProt S4UI50); experiment: Inhibition of recombinant FhTIM, coupled enzyme assay; assay type: biochemical
In short: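 E. coli-expressed FhTIM preincubated with compound 1 h at 37 °C in 100 mM triethanolamine, 10 mM EDTA, pH 7.4, 10% DMSO. Aliquot diluted into coupled assay (1 mM glyceraldehyde-3-phosphate, 0.2 mM NADH, α-glycerol phosphate dehydrogenase, pH 7.4) with NADH decrease at 340 nm, 38 °C. Triplicate, two independent experiments.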

[2] = test system: F. hepatica infected mice; experiment: Mouse infection with F. hepatica; assay type: in vivo, BALB/c mice; conditions: for protection of mice from F. hepatica infection (clinical signs, Clinic Score): one dose 100 mg/kg orogastric, 1 week post-infection, read at 3 wpi; for transaminase profile at the end of the experiment: one dose 100 mg/kg, infected mice
Protocol: Six- to eight-week-old female BALB/c mice were obtained from DILAVE Laboratories[57] (Uruguay). Animals were kept in the animal house (URBE, Facultad de Medicina, UdelaR, Uruguay) with water and food supplied ad libitum. Mouse handling and experiments were carried out in accordance with strict guidelines from the National Committee on Animal Research (CNEA, Uruguay). All procedures involving animals were approved by the Universidad de la República’s Committee on Animal Research (CHEA Protocol Number: 070153-000180-16). BALB/c mice were orally infected with 10 F. hepatica metacercariae per animal. After 1 week post-infection (wpi), mice were intragastrically inoculated with compound 187 (100 mg/kg) or TCZ (100 mg/kg). At 3 wpi mice were bled and sacrificed. Peritoneal exudate cells, spleens, and livers were removed and analyzed. In order to evaluate the severity of the infection, a disease severity score was developed (Table 3S Supporting Information)[57], which was applied in blinded experiments. Alanine aminotransferase (ALT) activity in sera was determined using a commercial kit (Spinreact, Spain) according to the manufacturers’ instructions. PECs from infected and non-infected mice were washed twice with PBS containing 2% FBS and 0.1% sodium azide.

[3] = test system: murine macrophages and bovine sperm; experiment: Non-specific toxicity against mammalian cells; assay type: cell-based; conditions: for Toxicity mammalian cells: selectivity index parasite vs. mammalian cells, fixed doses 25 and 100 µM
Protocol: As a proof of concept, we tested the best FhTIM inactivators against F. hepatica and S. mansoni parasites. Also, we use compound 191 as a non-inhibitor which has a closely related structure to that of compound 187. Some compounds were able to kill 100% of the newly excysted juvenile (NEJ) F. hepatica within 4 to 48 h (Table 2 and Fig. 2). […] In parallel, these compounds were assayed to characterize their non-specific toxicity against murine macrophages and bovine sperm. Both models are recommended by FDA as an in vitro prediction of toxicology.
J774.1 murine macrophage cells (ATCC, USA) were grown in DMEM culture milieu containing 4 mM glutamine and supplemented with 10% FCS[20]. The cells were seeded in a 96-well plate (5×10^4 cells in 200 µL culture medium) and incubated at 37 °C in a 5% CO2 atmosphere for 48 h, to allow cell adhesion prior to drug testing. Afterward, cells were exposed for 48 h to the compounds (25–400 µM) or the vehicle for control (0.4% DMSO), and additional controls (cells in medium) were used in each test. Cell viability was then assessed by measuring the mitochondria-dependent reduction of MTT (3-(4,5-dimethylthiazol-2-yl)-2,5-diphenyltetrazolium bromide) to formazan. For this purpose, MTT in sterile PBS (0.2% glucose), pH 7.4, was added to the macrophages to achieve a final concentration of 0.1 mg/mL, and the cells were incubated at 37 °C for 3 h. After removing the medium, formazan crystals were dissolved in 180 µL of DMSO and 20 µL of MTT buffer (0.1 M glycine, 0.1 M NaCl, 0.5 mM EDTA, pH 10.5), and the absorbance at 560 nm was measured. The IC50 was defined as the drug concentration at which 50% of the cells were viable, relative to the control (no drug added), and was determined by analysis using OriginLab8.5® sigmoidal regression (% of viable cells vs. the logarithm of the compound concentration). Tests were performed in triplicate.
Semen samples were obtained from a healthy fertile Hereford bull and kept frozen in 0.5 mL straws (extended in Andromed, Minitube, Germany[47]) under liquid nitrogen until use. The semen used belonged to a single freezing batch that was obtained during a regular collection schedule with an artificial vagina. Samples from three straws were thawed and a sperm pool was prepared in PBS at a concentration of 40 million spermatozoa per mL, then 50 μL of this sperm suspension was carefully mixed with 50 μL of compounds diluted to 100, 50, 25, 12.5 and 6.25 μM or with 1% DMSO in control experiments. Each condition was assayed by duplicate in 96-well plates and controls were assayed by triplicate. Plates were incubated at 37 °C for 1 h with moderate shaking. The motility analysis was carried out using a CASA (Computer Assisted Semen Analyzer) system Androvision (Minitube, Tiefenbach, Germany) with an Olympus BX 41 microscope (Olympus, Japan) equipped with a warm-stage at 37 °C. Each sample (10 μL) was placed onto a Makler Counting Chamber (depth 10 μm, Sefi-Medical Instruments, Israel) and the following parameters were evaluated: percentage of total motile spermatozoa (motility >5 μm/s) and velocity curved line (VCL, >24 μm/s). At least 400 spermatozoa were analyzed from each sample from at least four microscope fields.

[4] = Figure 1, ranges of inhibitory activity, read-out: IC50 range
[5] = recombinant FhTIM, 1 h incubation with compound at 37 °C, read-out: IC50

Sequence of Fasciola hepatica TIM (FhTIM) (S4UI50 entry or part of it): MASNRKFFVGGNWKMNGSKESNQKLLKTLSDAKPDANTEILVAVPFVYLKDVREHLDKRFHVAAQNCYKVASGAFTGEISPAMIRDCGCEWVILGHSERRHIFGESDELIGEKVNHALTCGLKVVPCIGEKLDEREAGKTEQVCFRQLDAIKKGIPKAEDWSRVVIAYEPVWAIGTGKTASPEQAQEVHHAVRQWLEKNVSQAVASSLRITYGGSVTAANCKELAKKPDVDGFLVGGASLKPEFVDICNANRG

SMILES: Cc1ccc(-c2nsc(S(=O)(=O)c3ccc(C)cc3)n2)cc1 [Compound 187]
IC50 [1, 4]: < 50 µM
IC50 ([1]; Table 1S, screening of 340 compounds in FhTIM, table head prints no unit, µM per b8/b9, read-out: IC50): < 25 µM
IC50 [1, 5]: 4 ± 0.2 µM
protection of mice from F. hepatica infection (clinical signs, Clinic Score) [2]: protected mice from the infection
transaminase profile at the end of the experiment [2]: according to a healthy liver
toxicity to mammalian cells in words ([3]; herein): non-toxic
Toxicity mammalian cells [3]: NT (when the IC50 vs. the parasite was at least 10 times less than the IC50 vs. the mammalian cells, we considered these compounds as non-toxic (NT))

IC50 [1, 4]: < 50 µM
IC50 [1, 5]: 7 ± 1 µM
SMILES: CSc1nc2cc(Cl)c(Oc3cccc(Cl)c3Cl)cc2[nH]1 [Compound 1278, triclabendazole, reference compound]
protection of mice from F. hepatica infection (clinical signs, Clinic Score) [2]: protected mice from the infection
transaminase profile at the end of the experiment [2]: according to a healthy liver
Toxicity mammalian cells [3]: NT (when the IC50 vs. the parasite was at least 10 times less than the IC50 vs. the mammalian cells, we considered these compounds as non-toxic (NT))
